These compounds were tested on Escherichia coli (ATCC25922) or Staphylococcus aureus (ATCC25923) (assay: Antibacterial MIC, microdilution method in Mueller-Hinton medium). Details: Escherichia coli, 18 h, MIC in E. coli or S. aureus; two-fold serial dilutions 64 to 0.5 μg/ml in duplicate; 18 hours of incubation at 35° C.; read-out: Potency (MIC).
Format: cell-based
In short: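 Two-fold serial dilutions from 64 to 0.5 μg/ml, in duplicate, by broth microdilution in Mueller-Hinton medium (NCCLS M7-A5). MIC taken as the lowest concentration preventing visible growth after 18 h at 35° C.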

Q: How did the MIC turn out when `Cc1cc(NC(=O)c2cccc([N+](=O)[O-])c2O)ccc1Nc1nc(N2CCCCC2)nc(N2CCCCC2)n1.Cl` [N-[4-(2-hydroxy-3-nitro-benzoylamino)-2-methyl-pphenyl]-4,6-Bis-((3R,5S)-3,5-diamino-piperidin-1-yl)-[1,3,5]triazine-2-amine] was run?
A: > 64 µg/mL

Same assay, conditions: Escherichia coli, 18 h, read-out: Potency (MIC)

Q: `N[C@@H]1C[C@H](N)CN(c2nc(Nc3ccc(C(=O)Nc4ccccc4F)c(O)c3)nc(N3C[C@H](N)C[C@H](N)C3)n2)C1` [N-[4-(2-fluoro-phenylcarbamoyl)-3-hydroxy-phenyl]-4,6-Bis-((3R,5S)-3,5-diamino-piperidin-1-yl)-[1,3,5]triazine-2-amine] was tested. Which MIC did it give?
A: < 64 µg/mL

Q: `CC(C)c1cc(C(=O)Nc2ccc(Nc3nc(N4C[C@H](N)C[C@H](N)C4)nc(N4C[C@H](N)C[C@H](N)C4)n3)cc2)c(O)c(C(C)C)c1` [N-[4-(2-hydroxy-3,5-diisopropyl-benzoylamino)-phenyl]-4,6-Bis-((3R,5S)-3,5-diamino-piperidin-1-yl)-[1,3,5]triazine-2-amine] was tested. Which MIC did it give?
A: < 16 µg/mL

Q: For `COc1cccc(C(=O)Nc2ccc(Nc3nc(N4C[C@H](N)C[C@H](N)C4)nc(N4C[C@H](N)C[C@H](N)C4)n3)cc2)c1O` [N-[4-(2-hydroxy-3-methoxy-benzoylamino)-phenyl]-4,6-Bis-((3R,5S)-3,5-diamino-piperidin-1-yl)-[1,3,5]triazine-2-amine], which MIC is on record?
A: < 64 µg/mL

Q: With `Cc1cc(Nc2nc(N3C[C@H](N)C[C@H](N)C3)nc(N3C[C@H](N)C[C@H](N)C3)n2)ccc1NC(=O)c1cccc(C)c1O` [N-[4-(2-hydroxy-3-methyl-benzoylamino)-3-methyl-phenyl]-4,6-Bis-((3R,5S)-3,5-diamino-piperidin-1-yl)-[1,3,5]triazine-2-amine] as the compound, how does the MIC read?
A: < 64 µg/mL

Q: How did the MIC turn out when `Cc1cc(Nc2nc(N3C[C@H](N)C[C@H](N)C3)nc(N3C[C@H](N)C[C@H](N)C3)n2)ccc1NC(=O)c1cccc([N+](=O)[O-])c1O` [N-[4-(2-hydroxy-3-nitro-benzoylamino)-3-methyl-phenyl]-4,6-Bis-((3R,5S)-3,5-diamino-piperidin-1-yl)-[1,3,5]triazine-2-amine] was run?
A: < 64 µg/mL

Q: How did the MIC turn out when `N[C@@H]1C[C@H](N)CN(c2nc(Nc3ccc(NC(=O)c4cccc([N+](=O)[O-])c4O)cc3)nc(N3C[C@H](N)C[C@H](N)C3)n2)C1` [N-[4-(2-hydroxy-3-nitro-benzoylamino)-phenyl]-4,6-Bis-((3R,5S)-3,5-diamino-piperidin-1-yl)-[1,3,5]triazine-2-amine] was run?
A: > 64 µg/mL

Q: `COc1ccc(C(=O)Nc2ccc(Nc3nc(N4C[C@H](N)C[C@H](N)C4)nc(N4C[C@H](N)C[C@H](N)C4)n3)cc2)c(O)c1` [N-[4-(2-hydroxy-4-methoxy-benzoylamino)-phenyl]-4,6-Bis-((3R,5S)-3,5-diamino-piperidin-1-yl)-[1,3,5]triazine-2-amine] was tested. Which MIC did it give?
A: > 64 µg/mL

Q: `Cc1ccc(C(=O)Nc2ccc(Nc3nc(N4C[C@H](N)C[C@H](N)C4)nc(N4C[C@H](N)C[C@H](N)C4)n3)c(C)c2)c(O)c1` [N-[4-(2-hydroxy-4-methyl-benzoylamino)-2-methyl-phenyl]-4,6-Bis-((3R,5S)-3,5-diamino-piperidin-1-yl)-[1,3,5]triazine-2-amine] was tested. Which MIC did it give?
A: < 64 µg/mL

Q: How did the MIC turn out when `Cc1ccc(C(=O)Nc2ccc(Nc3nc(N4C[C@H](N)C[C@H](N)C4)nc(N4C[C@H](N)C[C@H](N)C4)n3)cc2C)c(O)c1` [N-[4-(2-hydroxy-4-methyl-benzoylamino)-3-methyl-phenyl]-4,6-Bis-((3R,5S)-3,5-diamino-piperidin-1-yl)-[1,3,5]triazine-2-amine] was run?
A: < 64 µg/mL

Q: How did the MIC turn out when `Cc1ccc(C(=O)Nc2ccc(Nc3nc(N4C[C@H](N)C[C@H](N)C4)nc(N4C[C@H](N)C[C@H](N)C4)n3)cc2)c(O)c1` [N-[4-(2-hydroxy-4-methyl-benzoylamino)-phenyl]-4,6-Bis-((3R,5S)-3,5-diamino-piperidin-1-yl)-[1,3,5]triazine-2-amine] was run?
A: < 16 µg/mL

Q: With `COc1ccc(O)c(C(=O)Nc2ccc(Nc3nc(N4C[C@H](N)C[C@H](N)C4)nc(N4C[C@H](N)C[C@H](N)C4)n3)cc2)c1` [N-[4-(2-hydroxy-5-methoxy-benzoylamino)-phenyl]-4,6-Bis-((3R,5S)-3,5-diamino-piperidin-1-yl)-[1,3,5]triazine-2-amine] as the compound, how does the MIC read?
A: < 64 µg/mL

Q: With `N[C@@H]1C[C@H](N)CN(c2nc(Nc3ccc(NC(=O)c4cc(OC(F)(F)F)ccc4O)cc3)nc(N3C[C@H](N)C[C@H](N)C3)n2)C1` [N-[4-(2-hydroxy-5-trifluoromethoxy-benzoylamino)-phenyl]-4,6-Bis-((3R,5S)-3,5-diamino-piperidin-1-yl)-[1,3,5]triazine-2-amine] as the compound, how does the MIC read?
A: < 16 µg/mL

Q: Which MIC does the source give for `N[C@@H]1C[C@H](N)CN(c2nc(Nc3ccc(NC(=O)CO)cc3)nc(N3C[C@H](N)C[C@H](N)C3)n2)C1` [N-[4-(2-hydroxy-acetylamino)-phenyl]-4,6-Bis-((3R,5S)-3,5-diamino-piperidin-1-yl)-[1,3,5]triazine-2-amine] here?
A: > 64 µg/mL

Q: Which MIC does the source give for `N[C@@H]1C[C@H](N)CN(c2nc(Nc3ccc(C(=O)CC(=O)Nc4ccccc4)cc3)nc(N3C[C@H](N)C[C@H](N)C3)n2)C1` [N-[4-(2-phenylcarbamoyl-acetyl)-phenyl]-4,6-Bis-((3R,5S)-3,5-diamino-piperidin-1-yl)-[1,3,5]triazine-2-amine] here?
A: < 16 µg/mL

Q: How did the MIC turn out when `N[C@@H]1C[C@H](N)CN(c2nc(Nc3ccc(C(=O)Nc4ccc(Cl)c(Cl)c4)c(O)c3)nc(N3C[C@H](N)C[C@H](N)C3)n2)C1` [N-[4-(3,4-dichloro-phenylcarbamoyl)-3-hydroxy-phenyl]-4,6-Bis-((3R,5S)-3,5-diamino-piperidin-1-yl)-[1,3,5]triazine-2-amine] was run?
A: < 16 µg/mL

Q: With `N[C@@H]1C[C@H](N)CN(c2nc(Nc3ccc(NC(=O)c4ccc(F)c(F)c4O)c(O)c3)nc(N3C[C@H](N)C[C@H](N)C3)n2)C1` [N-[4-(3,4-difluoro-2-hydroxy-benzoylamino)-3-hydroxy-phenyl]-4,6-Bis-((3R,5S)-3,5-diamino-piperidin-1-yl)-[1,3,5]triazine-2-amine] as the compound, how does the MIC read?
A: < 64 µg/mL

Q: `N[C@@H]1C[C@H](N)CN(c2nc(Nc3ccc(NC(=O)c4ccc(F)c(F)c4O)cc3)nc(N3C[C@H](N)C[C@H](N)C3)n2)C1` [N-[4-(3,4-difluoro-2-hydroxy-benzoylamino)-phenyl]-4,6-Bis-((3R,5S)-3,5-diamino-piperidin-1-yl)-[1,3,5]triazine-2-amine] was tested. Which MIC did it give?
A: < 64 µg/mL

Q: How did the MIC turn out when `N[C@@H]1C[C@H](N)CN(c2nc(Nc3ccc(C(=O)Nc4ccc(F)c(F)c4)c(O)c3)nc(N3C[C@H](N)C[C@H](N)C3)n2)C1` [N-[4-(3,4-difluoro-phenylcarbamoyl)-3-hydroxy-phenyl]-4,6-Bis-((3R,5S)-3,5-diamino-piperidin-1-yl)-[1,3,5]triazine-2-amine] was run?
A: < 16 µg/mL

Q: `COc1ccc(S(=O)(=O)Nc2ccc(Nc3nc(N4C[C@H](N)C[C@H](N)C4)nc(N4C[C@H](N)C[C@H](N)C4)n3)cc2O)cc1OC` [N-[4-(3,4-dimethoxy-benzenesulfonylamino)-3-hydroxy-phenyl]-4,6-Bis-((3R,5S)-3,5-diamino-piperidin-1-yl)-[1,3,5]triazine-2-amine] was tested. Which MIC did it give?
A: > 64 µg/mL

Q: How did the MIC turn out when `Cc1noc(NS(=O)(=O)c2ccc(Nc3nc(N4C[C@H](N)C[C@H](N)C4)nc(N4C[C@H](N)C[C@H](N)C4)n3)cc2)c1C` [N-[4-(3,4-dimethyl-isoxazol-5-ylsulfamoyl)-phenyl]-4,6-Bis-((3R,5S)-3,5-diamino-piperidin-1-yl)-[1,3,5]triazine-2-amine] was run?
A: > 64 µg/mL

Q: For `N[C@@H]1C[C@H](N)CN(c2nc(Nc3ccc(NS(=O)(=O)c4cc(Cl)cc(Cl)c4O)c(O)c3)nc(N3C[C@H](N)C[C@H](N)C3)n2)C1` [N-[4-(3,5-dichloro-2-hydroxy-benzenesulfonylamino)-3-hydroxy-phenyl]-4,6-Bis-((3R,5S)-3,5-diamino-piperidin-1-yl)-[1,3,5]triazine-2-amine], which MIC is on record?
A: < 16 µg/mL

Q: With `N[C@@H]1C[C@H](N)CN(c2nc(Nc3ccc(C(=O)Nc4cc(Cl)c(O)c(Cl)c4)c(O)c3)nc(N3C[C@H](N)C[C@H](N)C3)n2)C1` [N-[4-(3,5-dichloro-4-hydroxy-phenylcarbamoyl)-3-hydroxy-phenyl]-4,6-Bis-((3R,5S)-3,5-diamino-piperidin-1-yl)-[1,3,5]triazine-2-amine] as the compound, how does the MIC read?
A: < 64 µg/mL

Q: Which MIC does the source give for `N[C@@H]1C[C@H](N)CN(c2nc(Nc3ccc(NS(=O)(=O)c4cc(Cl)cc(Cl)c4)c(O)c3)nc(N3C[C@H](N)C[C@H](N)C3)n2)C1` [N-[4-(3,5-dichloro-benzenesulfonylamino)-3-hydroxy-phenyl]-4,6-Bis-((3R,5S)-3,5-diamino-piperidin-1-yl)-[1,3,5]triazine-2-amine] here?
A: < 64 µg/mL

Q: With `N[C@@H]1C[C@H](N)CN(c2nc(Nc3ccc(NC(=O)c4cccc(Br)c4)c(O)c3)nc(N3C[C@H](N)C[C@H](N)C3)n2)C1` [N-[4-(3-bromo-benzoylamino)-3-hydroxy-phenyl]-4,6-Bis-((3R,5S)-3,5-diamino-piperidin-1-yl)-[1,3,5]triazine-2-amine] as the compound, how does the MIC read?
A: < 16 µg/mL

Q: For `N[C@@H]1C[C@H](N)CN(c2nc(Nc3ccc(C(=O)Nc4ccc(F)c(Cl)c4)c(O)c3)nc(N3C[C@H](N)C[C@H](N)C3)n2)C1` [N-[4-(3-chloro-4-fluoro-phenylcarbamoyl)-3-hydroxy-phenyl]-4,6-Bis-((3R,5S)-3,5-diamino-piperidin-1-yl)-[1,3,5]triazine-2-amine], which MIC is on record?
A: < 16 µg/mL

Q: For `N[C@@H]1C[C@H](N)CN(c2nc(Nc3ccc(C(=O)Nc4cccc(Cl)c4)c(O)c3)nc(N3C[C@H](N)C[C@H](N)C3)n2)C1` [N-[4-(3-chloro-phenylcarbamoyl)-3-hydroxy-phenyl]-4,6-Bis-((3R,5S)-3,5-diamino-piperidin-1-yl)-[1,3,5]triazine-2-amine], which MIC is on record?
A: < 16 µg/mL

Q: Which MIC does the source give for `N[C@@H]1C[C@H](N)CN(c2nc(Nc3ccc(NS(=O)(=O)CCCCl)c(O)c3)nc(N3C[C@H](N)C[C@H](N)C3)n2)C1` [N-[4-(3-chloro-propane-1-sulfonylamino)-3-hydroxy-phenyl]-4,6-Bis-((3R,5S)-3,5-diamino-piperidin-1-yl)-[1,3,5]triazine-2-amine] here?
A: > 64 µg/mL

— patent US7223759B2, “Antibacterial 3,5-diaminopiperidine-substituted aromatic and heteroaromatic compounds” (Anadys Pharmaceuticals, Inc., priority 2003, dated 2007)
